# ± gives the expanded uncertainty stated by the source.
# Assay: activity coefficient (dimensionless); of the first substance listed, at infinite dilution; xn = mol fraction of the nth substance listed
# Conditions: 328.15 K; 101 kPa; Liquid; Chromatography; x1 = 0
row,activity coefficient,SMILES
1,9.7 ± 0.66,C1CCCCCC1 [cycloheptane] + CCCC[N+]1(C)CCCC1.N#C[B-](C#N)(C#N)C#N
2,7.8 ± 0.53,C1CCCCC1 [cyclohexane] + CCCC[N+]1(C)CCCC1.N#C[B-](C#N)(C#N)C#N
3,3.97 ± 0.27,C1=CCCCC1 [cyclohexene] + CCCC[N+]1(C)CCCC1.N#C[B-](C#N)(C#N)C#N
4,12.5 ± 0.9,C1CCCCCCC1 [cyclooctane] + CCCC[N+]1(C)CCCC1.N#C[B-](C#N)(C#N)C#N
5,5.47 ± 0.37,C1CCCC1 [cyclopentane] + CCCC[N+]1(C)CCCC1.N#C[B-](C#N)(C#N)C#N
6,59.5 ± 4.1,CCCCCCCCCC [decane] + CCCC[N+]1(C)CCCC1.N#C[B-](C#N)(C#N)C#N
7,5.94 ± 0.4,CC(C)OC(C)C [diisopropyl ether] + CCCC[N+]1(C)CCCC1.N#C[B-](C#N)(C#N)C#N
8,5.65 ± 0.39,CCCOCCC [dipropyl ether] + CCCC[N+]1(C)CCCC1.N#C[B-](C#N)(C#N)C#N
9,1.17 ± 0.07,CCO [ethanol] + CCCC[N+]1(C)CCCC1.N#C[B-](C#N)(C#N)C#N
10,1.58 ± 0.1,CCc1ccccc1 [ethylbenzene] + CCCC[N+]1(C)CCCC1.N#C[B-](C#N)(C#N)C#N
11,21.5 ± 1.5,CCCCCCC [heptane] + CCCC[N+]1(C)CCCC1.N#C[B-](C#N)(C#N)C#N
12,7.31 ± 0.5,C=CCCCC [hex-1-ene] + CCCC[N+]1(C)CCCC1.N#C[B-](C#N)(C#N)C#N
13,15.3 ± 1,CCCCCC [hexane] + CCCC[N+]1(C)CCCC1.N#C[B-](C#N)(C#N)C#N
14,0.912 ± 0.058,CO [methanol] + CCCC[N+]1(C)CCCC1.N#C[B-](C#N)(C#N)C#N
15,11 ± 0.8,CC1CCCCC1 [methylcyclohexane] + CCCC[N+]1(C)CCCC1.N#C[B-](C#N)(C#N)C#N
16,42.5 ± 2.9,CCCCCCCCC [nonane] + CCCC[N+]1(C)CCCC1.N#C[B-](C#N)(C#N)C#N
17,14.6 ± 1,C=CCCCCCC [oct-1-ene] + CCCC[N+]1(C)CCCC1.N#C[B-](C#N)(C#N)C#N

row,SMILES,activity coefficient
1,CCOCC [diethyl ether] + CCCC[N+]1(C)CCCC1.N#C[B-](C#N)(C#N)C#N,2.33 ± 0.16

# Same assay, conditions: 338.15 K; 101 kPa; Liquid; Chromatography; x1 = 0
row,activity coefficient,SMILES
1,27.1 ± 1.9,C=CCCCCCCCC [1-decene] + CCCC[N+]1(C)CCCC1.N#C[B-](C#N)(C#N)C#N
2,10 ± 0.7,C=CCCCCC [1-heptene] + CCCC[N+]1(C)CCCC1.N#C[B-](C#N)(C#N)C#N
3,3.51 ± 0.24,C#CCCCCC [1-heptyne] + CCCC[N+]1(C)CCCC1.N#C[B-](C#N)(C#N)C#N
4,2.58 ± 0.18,C#CCCCC [1-hexyne] + CCCC[N+]1(C)CCCC1.N#C[B-](C#N)(C#N)C#N
5,4.88 ± 0.33,C#CCCCCCC [1-octyne] + CCCC[N+]1(C)CCCC1.N#C[B-](C#N)(C#N)C#N
6,5.3 ± 0.36,C=CCCC [1-pentene] + CCCC[N+]1(C)CCCC1.N#C[B-](C#N)(C#N)C#N
7,23.5 ± 1.6,"CC(C)CC(C)(C)C [2,2,4-trimethylpentane] + CCCC[N+]1(C)CCCC1.N#C[B-](C#N)(C#N)C#N"
8,13.2 ± 0.9,"CCC(C)(C)C [2,2-dimethylbutane] + CCCC[N+]1(C)CCCC1.N#C[B-](C#N)(C#N)C#N"
9,3.35 ± 0.23,CCC(C)(C)OC [2-methoxy-2-methylbutane] + CCCC[N+]1(C)CCCC1.N#C[B-](C#N)(C#N)C#N
10,2.46 ± 0.17,COC(C)(C)C [2-methoxy-2-methylpropane] + CCCC[N+]1(C)CCCC1.N#C[B-](C#N)(C#N)C#N
11,13 ± 0.9,CCC(C)CC [3-methylpentane] + CCCC[N+]1(C)CCCC1.N#C[B-](C#N)(C#N)C#N
12,0.836 ± 0.054,c1ccccc1 [benzene] + CCCC[N+]1(C)CCCC1.N#C[B-](C#N)(C#N)C#N
13,1.55 ± 0.1,CCCCO [butan-1-ol] + CCCC[N+]1(C)CCCC1.N#C[B-](C#N)(C#N)C#N
14,9.18 ± 0.63,C1CCCCCC1 [cycloheptane] + CCCC[N+]1(C)CCCC1.N#C[B-](C#N)(C#N)C#N
15,7.45 ± 0.51,C1CCCCC1 [cyclohexane] + CCCC[N+]1(C)CCCC1.N#C[B-](C#N)(C#N)C#N
16,3.93 ± 0.27,C1=CCCCC1 [cyclohexene] + CCCC[N+]1(C)CCCC1.N#C[B-](C#N)(C#N)C#N
17,11.6 ± 0.8,C1CCCCCCC1 [cyclooctane] + CCCC[N+]1(C)CCCC1.N#C[B-](C#N)(C#N)C#N
18,5.27 ± 0.36,C1CCCC1 [cyclopentane] + CCCC[N+]1(C)CCCC1.N#C[B-](C#N)(C#N)C#N
19,53.8 ± 3.7,CCCCCCCCCC [decane] + CCCC[N+]1(C)CCCC1.N#C[B-](C#N)(C#N)C#N
20,5.91 ± 0.4,CC(C)OC(C)C [diisopropyl ether] + CCCC[N+]1(C)CCCC1.N#C[B-](C#N)(C#N)C#N
21,5.51 ± 0.38,CCCOCCC [dipropyl ether] + CCCC[N+]1(C)CCCC1.N#C[B-](C#N)(C#N)C#N
22,1.09 ± 0.07,CCO [ethanol] + CCCC[N+]1(C)CCCC1.N#C[B-](C#N)(C#N)C#N
23,1.6 ± 0.11,CCc1ccccc1 [ethylbenzene] + CCCC[N+]1(C)CCCC1.N#C[B-](C#N)(C#N)C#N
24,19.8 ± 1.4,CCCCCCC [heptane] + CCCC[N+]1(C)CCCC1.N#C[B-](C#N)(C#N)C#N
25,7.16 ± 0.49,C=CCCCC [hex-1-ene] + CCCC[N+]1(C)CCCC1.N#C[B-](C#N)(C#N)C#N
26,14.3 ± 1,CCCCCC [hexane] + CCCC[N+]1(C)CCCC1.N#C[B-](C#N)(C#N)C#N
27,0.861 ± 0.055,CO [methanol] + CCCC[N+]1(C)CCCC1.N#C[B-](C#N)(C#N)C#N
28,10.5 ± 0.7,CC1CCCCC1 [methylcyclohexane] + CCCC[N+]1(C)CCCC1.N#C[B-](C#N)(C#N)C#N
29,38.2 ± 2.6,CCCCCCCCC [nonane] + CCCC[N+]1(C)CCCC1.N#C[B-](C#N)(C#N)C#N
30,14.1 ± 1,C=CCCCCCC [oct-1-ene] + CCCC[N+]1(C)CCCC1.N#C[B-](C#N)(C#N)C#N

row,SMILES,activity coefficient
1,"Cc1ccccc1C [1,2-dimethylbenzene] + CCCC[N+]1(C)CCCC1.N#C[B-](C#N)(C#N)C#N",1.39 ± 0.09
2,"Cc1cccc(C)c1 [1,3-dimethylbenzene] + CCCC[N+]1(C)CCCC1.N#C[B-](C#N)(C#N)C#N",1.59 ± 0.11
3,"Cc1ccc(C)cc1 [1,4-dimethylbenzene] + CCCC[N+]1(C)CCCC1.N#C[B-](C#N)(C#N)C#N",1.54 ± 0.1
4,CC(C)=O [acetone] + CCCC[N+]1(C)CCCC1.N#C[B-](C#N)(C#N)C#N,0.454 ± 0.036
5,CCOCC [diethyl ether] + CCCC[N+]1(C)CCCC1.N#C[B-](C#N)(C#N)C#N,2.34 ± 0.16

# From the NIST ThermoML archive (doi:10.1016/j.jct.2011.06.007)
